We go through 8 compounds from article PMC2673211, “Nitric oxide activates ATP-sensitive potassium channels in mammalian sensory neurons: action by direct S-nitrosylation” (Molecular Pain, 2009).

The target in experiment [1] is T1, wild-type SUR1/Kir6.2 channels (Rattus norvegicus, UniProt P70673+Q09429).
T1 construct: A full-length Kir cDNA and a full-length SUR cDNA were subcloned into the mammalian expression vector; expressed in transfected cells; host or cells: COS7 cells (KATP channel-deficient), pcDNA3.1(-) vectors, GFP cDNA co-transfected as a separate reporter
Nature of the experiment: Inside-out patch recording of recombinant wild-type channels expressed in COS7 cells. In kind it is biochemical. The following applies: cloned SUR1/Kir6.2 in COS7 cells vs. native channels in DRG neurons. As for the experimental part: KATP channel-deficient COS7 cells were plated at a density of 3 × 10^5/dish (35 mm in diameter) and cultured in Dulbecco's modified Eagle's medium supplemented with 10% fetal calf serum. Rat Kir6.2 (GenBank X97041) and rat SUR1 (GenBank X97279) cDNAs were used for expression study. A truncated form of Kir6.2 lacking the last 36 amino acids at the C-terminus was obtained by polymerase chain reaction amplification. Polymerase chain reaction products were cloned into the pCR3.1 vector by using the TA cloning system (Invitrogen Corp., Carlsbad, CA, USA) and then cloned into the pcDNA3.1 (-) vector (Invitrogen Corp.) for mammalian expression. Point mutation of cysteine at position 717 (C717), C806, C1378, C1446, and C1491 within SUR1 to serine (C717S, C806S, C1378S, C1446S, and C1491S) was performed by using the Site-Directed Mutagenesis system (Invitrogen Corp.). All cDNA products were sequenced by using the BigDye terminator cycle sequencing kit and an ABI PRISM 377 DNA sequencer (Applied Biosystems, Foster City, CA) to confirm the sequence. A full-length Kir cDNA and a full-length SUR cDNA were subcloned into the mammalian expression vector pcDNA3.1 (-). For electrophysiological recordings, either wild-type or mutated pcDNA3.1 (-) Kir6.2 alone (1 μg), or pcDNA3.1 (-) Kir6.2 (1 μg) plus pcDNA3.1 (-) SUR1 (3 μg) were transfected into COS7 cells with green fluorescent protein cDNA as a reporter gene by using lipofectamine and Opti-MEN 1 reagents (Life Technologies Inc., Rockville, MD) according to the manufacturer's instructions. After transfection, cells were cultured at 37°C with 95% air and 5% CO2 for 48–72 h before being subjected to electrophysiological recordings.
(§1) We recorded current passing through single channels in inside-out or cell-attached patch configurations. In cell-attached patches, both bath and pipette (extracellular) solutions were composed of the following: 140 mM KCl, 10 mM HEPES, 5.5 mM dextrose, and 1 mM EGTA. In inside-out patches, the bath (intracellular) solution contained 140 mM KCl, 1.2 mM MgCl2, 10 mM HEPES, 1.5 mM EGTA and 5.5 mM dextrose. The pipette (extracellular) solution was of the same composition as that used in cell-attached recordings. The pH of all solutions was adjusted to 7.4 with KOH. Osmolality was adjusted approximately to 300 mOsm/l by adding sucrose if necessary. We pulled patch micropipettes from borosilicate glass capillaries using a Flaming/Brown micropipette puller, model P-97 (Sutter, San Rafael, CA) and flame polished them with a microforge polisher (Narishige, Tokyo, Japan) prior to use. Their resistance ranged between 3 and 6 MΩ when filled with the internal solution, and placed into the recording solutions.
We recorded single channel currents at room temperature (20–25°C) using an Axon CNS Multiclamp 700B amplifier, digitized them using an analog-to-digital converter (Axon CNS DigiData 1440A; Axon Instruments, Foster, CA), and stored them into a PC. Sampling frequency of single-channel data was 5 KHz with a low-pass filter (1 KHz). We used pClamp version 10.2 software (Axon Instruments) for data acquisition and analysis. […] Channel open probability (Po) was determined from the ratios of the area under the peaks in the amplitude histograms fitted by a Gaussian distribution. We calculated channel activity as NPo (where N is the number of observed channels in the patch) from data samples of either 30 s (in inside-out recordings), or 60 s (in cell-attached recordings), in the steady state. […]

Experiment [2] deals with T2, KATP channels in large DRG neurons (Rattus norvegicus, UniProt P70673+Q09429).
T2 construct: native KATP channels in large DRG neurons; endogenous in cells; host or cells: acutely dissociated large-diameter neurons from rat L4/L5 dorsal root ganglia (sham-operated or spinal nerve ligated animals)
Kind of experiment: Excised inside-out (cell-free) patch-clamp recording of KATP channel activity. The format is biochemical.
Text: (§2) We harvested control (L4 and L5) or axotomized (L5) ganglia, from control (SS) or hyperalgesic rats (SNL) respectively, between the 17th and 28th postoperative days. We sacrificed animals by decapitation under deep isoflurane anesthesia, excised ganglia through a lumbar incision, and at the same time confirmed accuracy of initial surgery.
For patch-clamp recordings, we placed excised DRG into separate 35 mm Petri dishes containing cold, oxygenated, Hanks Balanced Salt Solution (Gibko, Invitrogen, Grand Islan, NY), and minced them with iris scissors. We dissociated ganglia enzymatically in a solution containing 0.25 ml 0.05% w:v liberase blendzyme 2 (Roche Diagnostics Corp., Indianapolis, IN) and 0.25 ml DMEM/F12 with glutaMAX (Dulbecco's modified Eagle's medium F12; Gibco, Invitrogen Corp., Carlsbad, CA) in an incubator at 37°C for 30 min. We then removed the supernatant after centrifugation and re-incubated cells at 37°C for another 30 min in 0.2 ml 0.0625% trypsin (Sigma, St. Louis, MO) and 0.0125% deoxyribonuclease 1 (150,000 U, Sigma, St. Louis, MO) in 0.25 ml DMEM. We then isolated cells by centrifugation (600 rpm for 5 min) after adding 0.25 ml trypsin inhibitor 0.1% w:v (Sigma St. Louis, MO), and re-suspended them in a culture medium consisting of 0.5 mM glutamine, 0.02 mg/ml gentamicin (Gibco, Invitrogen Corp., Carlsbad, CA), 100 ng/ml nerve growth factor 7S (Alomone Labs, Jerusalem, Israel), 2% (vol/vol) B-27 supplement (Gibco, Invitrogen Corp., Carlsbad, CA), and 98% (vol/vol) neural basal medium A (Gibco, Invitrogen Corp., Carlsbad, CA). Finally, we plated cells onto poly-l-lysine-coated 12-mm glass coverslips (Deutsche Spiegelglas; Carolina Biologic Supply, Burlington, NC), kept them in a humidified incubator at 37°C with 95% air and 5% CO2, and studied them within 3–8 h of dissociation.
We visualized plated neurons using an inverted Nikon Diaphot 300 microscope with Hoffman modulation optic system. We selected only large diameter neuronal somata (≥ 40 μm in diameter) because we have previously shown that only these develop KATP current alterations, as well as changes indicative of increased excitability after painful-like nerve injury by SNL [74]. Large neuronal somata, roughly correspond to large, myelinated Aβ fibers.
as §1
We recorded single channel currents at room temperature (20–25°C) using an Axon CNS Multiclamp 700B amplifier, digitized them using an analog-to-digital converter (Axon CNS DigiData 1440A; Axon Instruments, Foster, CA), and stored them into a PC. Sampling frequency of single-channel data was 5 KHz with a low-pass filter (1 KHz). We used pClamp version 10.2 software (Axon Instruments) for data acquisition and analysis. We applied a conventional 50% current amplitude threshold level criterion to determine open events. Channel open probability (Po) was determined from the ratios of the area under the peaks in the amplitude histograms fitted by a Gaussian distribution. […]

Experiment [3] deals with T2, KATP channels in large DRG neurons. Kind of experiment: Cell-attached single-channel patch-clamp recording of KATP channel activity (NPo). The format is cell-based. The following applies: for NPo 10 min after SNAP following pretreatment with KT 5823: KT 5823 1 μM for 20 min; for NPo 10 min after SNAP following pretreatment with KT 5823 / NPo 10 min after SNAP following pretreatment with ODQ: then SNAP 100 μM; for baseline NPo after pretreatment with L-NAME: L-NAME 100 μM for 20 minutes; for NPo 10 min after SNAP following pretreatment with ODQ: ODQ 10 μM for 20 min; for NPo, DNP-induced channel opening: DNP 100 μM bath application, -60 mV.
Text: as §2
For patch-clamp recordings, we placed excised DRG into separate 35 mm Petri dishes containing cold, oxygenated, Hanks Balanced Salt Solution (Gibko, Invitrogen, Grand Islan, NY), and minced them with iris scissors. We dissociated ganglia enzymatically in a solution containing 0.25 ml 0.05% w:v liberase blendzyme 2 (Roche Diagnostics Corp., Indianapolis, IN) and 0.25 ml DMEM/F12 with glutaMAX (Dulbecco's modified Eagle's medium F12; Gibco, Invitrogen Corp., Carlsbad, CA) in an incubator at 37°C for 30 min. […] Finally, we plated cells onto poly-l-lysine-coated 12-mm glass coverslips (Deutsche Spiegelglas; Carolina Biologic Supply, Burlington, NC), kept them in a humidified incubator at 37°C with 95% air and 5% CO2, and studied them within 3–8 h of dissociation.
We visualized plated neurons using an inverted Nikon Diaphot 300 microscope with Hoffman modulation optic system. […] Large neuronal somata, roughly correspond to large, myelinated Aβ fibers.
as §1
Sampling frequency of single-channel data was 5 KHz with a low-pass filter (1 KHz). […] We applied a conventional 50% current amplitude threshold level criterion to determine open events. Channel open probability (Po) was determined from the ratios of the area under the peaks in the amplitude histograms fitted by a Gaussian distribution. We calculated channel activity as NPo (where N is the number of observed channels in the patch) from data samples of either 30 s (in inside-out recordings), or 60 s (in cell-attached recordings), in the steady state. In inside-out recordings, NPo of the KATP channels was normalized to the baseline NPo value obtained before test drugs at bathing solution without ATP (indicating relative channel activity).

[4] abbreviates: agent alone, vs. baseline/control.

T2 sequence (Q09429 whole entry): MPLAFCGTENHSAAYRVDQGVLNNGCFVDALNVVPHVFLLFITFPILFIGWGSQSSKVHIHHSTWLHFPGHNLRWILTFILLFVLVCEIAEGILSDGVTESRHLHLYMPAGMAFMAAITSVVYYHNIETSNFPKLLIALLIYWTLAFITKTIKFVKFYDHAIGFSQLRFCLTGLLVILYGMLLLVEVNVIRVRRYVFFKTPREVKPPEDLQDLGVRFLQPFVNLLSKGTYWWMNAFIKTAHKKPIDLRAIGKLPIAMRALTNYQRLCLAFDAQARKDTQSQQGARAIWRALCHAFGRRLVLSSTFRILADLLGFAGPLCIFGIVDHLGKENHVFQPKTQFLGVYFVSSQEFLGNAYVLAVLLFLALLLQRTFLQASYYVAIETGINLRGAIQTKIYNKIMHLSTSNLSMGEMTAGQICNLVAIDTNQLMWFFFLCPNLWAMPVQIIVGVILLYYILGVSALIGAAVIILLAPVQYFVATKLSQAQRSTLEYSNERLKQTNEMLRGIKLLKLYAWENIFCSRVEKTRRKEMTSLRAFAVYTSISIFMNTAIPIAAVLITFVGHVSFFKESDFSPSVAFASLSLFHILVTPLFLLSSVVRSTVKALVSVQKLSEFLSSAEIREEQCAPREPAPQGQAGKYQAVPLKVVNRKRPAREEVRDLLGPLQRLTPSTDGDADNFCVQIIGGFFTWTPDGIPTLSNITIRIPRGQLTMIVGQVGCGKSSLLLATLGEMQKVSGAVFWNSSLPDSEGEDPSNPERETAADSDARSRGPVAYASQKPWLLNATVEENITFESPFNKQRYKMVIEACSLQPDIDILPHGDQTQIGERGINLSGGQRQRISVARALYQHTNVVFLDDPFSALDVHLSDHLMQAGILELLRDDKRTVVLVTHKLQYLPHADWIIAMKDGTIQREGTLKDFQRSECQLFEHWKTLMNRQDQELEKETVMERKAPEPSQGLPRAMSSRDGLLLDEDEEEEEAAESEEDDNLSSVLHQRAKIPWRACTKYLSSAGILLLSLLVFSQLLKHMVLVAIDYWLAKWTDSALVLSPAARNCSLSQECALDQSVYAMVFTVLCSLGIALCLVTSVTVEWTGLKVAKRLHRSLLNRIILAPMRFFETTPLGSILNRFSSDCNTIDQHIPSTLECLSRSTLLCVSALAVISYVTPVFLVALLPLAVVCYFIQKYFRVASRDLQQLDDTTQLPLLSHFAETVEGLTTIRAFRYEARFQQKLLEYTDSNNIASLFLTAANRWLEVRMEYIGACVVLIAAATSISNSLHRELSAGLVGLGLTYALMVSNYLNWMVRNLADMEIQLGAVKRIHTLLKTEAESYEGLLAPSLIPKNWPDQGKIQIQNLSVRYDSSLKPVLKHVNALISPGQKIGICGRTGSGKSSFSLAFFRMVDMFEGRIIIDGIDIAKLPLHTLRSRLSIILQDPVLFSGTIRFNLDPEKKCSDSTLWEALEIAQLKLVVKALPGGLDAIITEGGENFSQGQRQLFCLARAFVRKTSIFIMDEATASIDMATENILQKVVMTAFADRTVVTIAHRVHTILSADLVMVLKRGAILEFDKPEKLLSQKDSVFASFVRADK
T2 sequence (P70673 whole entry): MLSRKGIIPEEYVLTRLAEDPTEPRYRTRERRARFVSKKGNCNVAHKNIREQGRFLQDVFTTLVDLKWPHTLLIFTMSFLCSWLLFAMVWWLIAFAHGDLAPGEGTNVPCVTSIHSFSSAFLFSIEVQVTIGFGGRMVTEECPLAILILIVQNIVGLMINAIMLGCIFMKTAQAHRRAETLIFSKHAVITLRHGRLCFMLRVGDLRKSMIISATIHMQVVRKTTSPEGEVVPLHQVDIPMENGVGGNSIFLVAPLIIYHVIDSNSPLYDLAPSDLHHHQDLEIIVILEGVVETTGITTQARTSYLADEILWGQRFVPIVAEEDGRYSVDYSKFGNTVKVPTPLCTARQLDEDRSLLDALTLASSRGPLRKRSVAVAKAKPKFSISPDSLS
T1 sequence (Q09429 whole entry): as the sequence (Q09429 whole entry) above
T1 sequence (P70673 whole entry): as the sequence (P70673 whole entry) above

For the compound nitric oxide [NO], the “potency of direct activation of cloned channels relative to native channels (less potent)” value in experiment [1] is given as “approximately 3 fold”.

`COC(=O)[C@@]1(OC)C[C@H]2O[C@]1(C)n1c3ccccc3c3c4c(c5c6ccccc6n2c5c31)C(=O)N(C)C4` [KT 5823]: the “direct effect on KATP channels in inside-out patches” value (“direct effect on KATP channels” below) in experiment [2] (setting [4]) is reported as “neither ODQ nor KT 5823 had any direct effect”. Moreover, in experiment [3] (KT 5823, SS and SNL neurons), the “effect of pretreatment on 8-Br-cGMP-induced KATP channel activation” value was “significantly reduces”. Further, the “NPo 10 min after SNAP following pretreatment with KT 5823” value in experiment [3] (SNL neurons, n = 6) is on record as 0.26 ± 0.19; in experiment [3] (SS neurons, n = 5), 0.14 ± 0.17.

Regarding `COC(=O)[C@@H](N)CCCNC(N)=N[N+](=O)[O-]` [L-NAME, NG-nitro-L-arginine methyl ester], the “direct effect on KATP channels” value in experiment [2] (setting [4]) was “no direct effect”. Further, the “baseline NPo after pretreatment with L-NAME” value is 0.06 ± 0.04 in experiment [3] (SNL neurons, n = 7) and 0.114 ± 0.06 in experiment [3] (SS neurons, n = 7).

As to `Nc1nc2c(nc(Br)n2[C@@H]2O[C@@H]3COP(=O)([O-])O[C@H]3[C@H]2O)c(=O)[nH]1.[Na+]` [8-Br-cGMP, 8-bromo-cGMP sodium salt], the “time to steady-state activation after exposure” value in experiment [3] (8-Br-cGMP 100 μM) lay in the range of 2 to 3 min. Further, the “effect when applied after SNAP-induced steady-state activation” value in experiment [3] (8-Br-cGMP at least 5 min after SNAP 100 μM, SS and SNL neurons, n = 5 each) is “additional further channel opening”. Further, the “NPo 5 min after application of 8-Br-cGMP” value in experiment [3] (SNL neurons, 8-Br-cGMP 100 μM, n = 7) was determined as 0.17 ± 0.06; in experiment [3] (SS neurons, 8-Br-cGMP 100 μM, n = 8), 0.22 ± 0.08.

For `CCCOc1ccccc1-c1nc2nn[nH]c2c(=O)[nH]1` [zaprinast], in experiment [3] (zaprinast, control and SNL neurons, data not shown), the “effect on KATP channel activity” value is listed as “no effect”.

Take `O=c1onc2cnc3ccccc3n12` [ODQ, 1H-[1,2, 4] oxadiazolo [4,3-a] quinoxalin-1-one]: the “direct effect on KATP channels” value in experiment [2] (setting [4]) was “neither ODQ nor KT 5823 had any direct effect”. The “NPo 10 min after SNAP following pretreatment with ODQ” value in experiment [3] (SNL neurons, n = 6) is on record as 0.27 ± 0.16; in experiment [3] (SS neurons, n = 6), 0.25 ± 0.09.

Regarding `O=[N+]([O-])c1ccc(O)c([N+](=O)[O-])c1` [DNP, 2,4-Dinitrophenol], in experiment [2] (DNP 100 μM, SS and SNL, vs. baseline), the “direct effect on KATP channels” value is “no direct effect”. For the same compound, the “NPo, DNP-induced channel opening” value in experiment [3] (SNL neurons, n = 8) was determined as 0.208 ± 0.16; in experiment [3] (SS neurons, n = 8), 0.442 ± 0.26.

As for `CCN1C(=O)C=CC1=O` [NEM, N-ethylmaleimide], in experiment [2] (NEM 5 mM, 1 mM [ATP]i, n = 6), the “effect on basal channel activity” value is “significantly decreased”. Further, in experiment [2] (SS neurons, NEM 5 mM before SNAP 100 μM, 1 mM [ATP]i, n = 6), the “effect on the activating effect of SNAP on KATP channels” value was “completely eliminated”.
